The test system of one experiment is Enterococcus faecalis. Put plainly: Inhibitory activity against VanA strain of E. faecalis; Range is 0.03-2 ug/mL. The experiment is classed as functional.
The next experiment concerns Enterococcus faecium. Put plainly: Inhibitory activity against VanA strain of E. faecium; Range is 0.03-2 ug/mL. It is filed as functional.
Experiment [1] has as its system Staphylococcus aureus. Put plainly: Inhibitory activity against MRSA. It is filed as functional.
The next experiment deals with Streptococcus pyogenes. Put plainly: Inhibitory activity against Streptococcus pyogenes. It is filed as functional.
A further experiment concerns Streptococcus pneumoniae. Put plainly: Inhibitory activity against Streptococcus pneumoniae. The experiment is classed as functional.
Experiment [2] in a line: Inhibitory activity against VanB enterococci; Range is 0.016-1 ug/mL. It is filed as functional.
In another experiment the test system is Chlamydia. Put plainly: Antibacterial activity against Chlamydia; More active. The experiment is classed as functional, organism-based.
The next experiment concerns Haemophilus influenzae. Put plainly: Antibacterial activity against Haemophilus influenzae; Active. It is filed as functional, organism-based.
Experiment [3] in a line: Antibacterial activity against Legionella; More active. The experiment is classed as functional.
The next experiment concerns Pasteurella multocida. Put plainly: Antibacterial activity against Pasteurella multocida; More active. The experiment is classed as functional, organism-based.
The subject of the next experiment is Streptococcus sp. Put plainly: Antibacterial activity against Streptococci; More active. It is filed as functional, organism-based.
Experiment [4] in a line: Antibacterial activity against […] species.; More active. It is filed as functional.
Another experiment relates to Pseudomonas aeruginosa. Put plainly: Antibacterial activity against Pseudomonas aeruginosa was determined; Active. It is filed as functional, organism-based.
The test system of experiment [5] is Staphylococcus aureus. Put plainly: Antibacterial activity against MRSA was determined; Active. It is filed as functional, organism-based.

Drawing on ChEMBL document CHEMBL1129675, “New directions in antibacterial research” (1996), this text covers MIC, MIC90 and Activity for nine compounds.

Broadly, the MIC is the smallest concentration in the dilution series that meets the test's criterion for growth inhibition. A high value points to a need for much substance. Broadly, the MIC90 is the lowest concentration that inhibits either 90% of growth or 90% of the strains tested, depending on the study. Read a low MIC90 as greater potency.

≈ marks a conversion by molar mass, not a printed value. Calls of active or inactive are those of the source.

As for `CN[C@H](CC(C)C)C(=O)N[C@H]1C(=O)N[C@@H](CC(N)=O)C(=O)N[C@H]2C(=O)N[C@H]3C(=O)N[C@](C)(C(=O)N[C@H](C(=O)O)c4cc(O)cc(O)c4-c4cc3ccc4O)[C@H](C[C@H]3C[C@](C)(N)[C@@H](O)[C@H](C)O3)c3ccc(c(Cl)c3)Oc3cc2cc(c3O[C@@H]2O[C@H](CO)[C@@H](O)[C@H](O)[C@H]2O[C@@H]2C[C@](C)(NCc3ccc(Oc4ccccc4)cc3)[C@@H](O)[C@H](C)O2)Oc2ccc(cc2Cl)[C@H]1O`, the MIC with Enterococcus faecalis is 0.03 µg/mL (≈ 0.0168 µM); against Enterococcus faecium, 0.03 µg/mL (≈ 0.0168 µM); against Staphylococcus aureus [1], no more than 0.5 µg/mL; with Streptococcus pyogenes it was less than 0.06 µg/mL; in the experiment with Streptococcus pneumoniae, less than 0.008 µg/mL; in [2] it was 0.016 µg/mL (≈ 0.00895 µM).

As to `CN[C@H](CC(C)C)C(=O)N[C@H]1C(=O)N[C@@H](CC(N)=O)C(=O)N[C@H]2C(=O)N[C@H]3C(=O)N[C@](C)(C(=O)N[C@H](C(=O)O)c4cc(O)cc(O)c4-c4cc3ccc4O)[C@H](C[C@H]3C[C@](C)(N)[C@@H](O)[C@H](C)O3)c3ccc(c(Cl)c3)Oc3cc2cc(c3O[C@@H]2O[C@H](CO)[C@@H](O)[C@H](O)[C@H]2O[C@@H]2C[C@](C)(NCc3ccc(-c4ccc(Cl)cc4)cc3)[C@@H](O)[C@H](C)O2)Oc2ccc(cc2Cl)[C@H]1O`, the MIC with Enterococcus faecalis was 0.03 µg/mL (≈ 0.0166 µM); against Enterococcus faecium it was 0.03 µg/mL (≈ 0.0166 µM); against Staphylococcus aureus [1] it was no more than 0.5 µg/mL; against Streptococcus pyogenes, less than 0.06 µg/mL; against Streptococcus pneumoniae, less than 0.008 µg/mL; in [2], 0.016 µg/mL (≈ 0.00886 µM).

`CCCCC1CCC(CN[C@@]2(C)C[C@@H](O[C@H]3[C@H](Oc4c5cc6cc4Oc4ccc(cc4Cl)[C@@H](C[C@H]4C[C@](C)(N)[C@@H](O)[C@H](C)O4)[C@]4(C)NC(=O)[C@H](NC(=O)[C@@H]6NC(=O)[C@H](CC(N)=O)NC(=O)[C@H](NC(=O)[C@@H](CC(C)C)NC)[C@H](O)c6ccc(c(Cl)c6)O5)c5ccc(O)c(c5)-c5c(O)cc(O)cc5[C@@H](C(=O)O)NC4=O)O[C@H](CO)[C@@H](O)[C@@H]3O)O[C@@H](C)[C@@H]2O)CC1` (some centres undefined): the MIC was 0.03 µg/mL (≈ 0.0171 µM) against Enterococcus faecalis; 0.03 µg/mL (≈ 0.0171 µM) against Enterococcus faecium; no more than 0.5 µg/mL with Staphylococcus aureus [1]; less than 0.06 µg/mL with Streptococcus pyogenes; less than 0.008 µg/mL against Streptococcus pneumoniae; 0.016 µg/mL (≈ 0.00911 µM) in experiment [2].

In the case of `CN(C)[C@@H]1C(=O)C(C(N)=O)=C(O)[C@@]2(O)C(=O)C3=C(O)c4c(O)cccc4[C@H](CSCCCCl)C3[C@H](O)C12` (some centres undefined), the MIC90 with Staphylococcus aureus [1] worked out at 2 µg/mL (≈ 3.62 µM).

As for `CC[C@H]1OC(=O)[C@H](C)[C@@H](O[C@H]2C[C@@](C)(OC)[C@@H](O)[C@H](C)O2)[C@H](C)[C@@H](O[C@@H]2O[C@H](C)C[C@H](N(C)C)[C@H]2O)[C@](C)(O)C[C@@H](C)CN(C)[C@H](C)[C@@H](O)[C@]1(C)O`, the outcome (in the experiment on Chlamydia; in the experiment with Haemophilus influenzae; in experiment [3]; with Pasteurella multocida; with Streptococcus sp.; in [4]) was Active.

Take `C[C@@H](O)[C@H]1C(=O)N2C(C(=O)O)=C(SCCNC=N)C[C@H]12`: the result in the experiment with Pseudomonas aeruginosa was Active.

Regarding `C[C@@H]1[C@H](NC(=O)/C(=N\OCC(=O)NNC(=O)c2nc3cc(O)c(O)cc3nc2C(=O)O)c2csc(N)n2)C(=O)N1S(=O)(=O)O`, the result in the experiment on Pseudomonas aeruginosa was Active.

In the case of `C[C@@H]1[C@H](NC(=O)/C(=N\OCc2cc3cc(O)c(O)cc3cc2C(=O)O)c2csc(N)n2)C(=O)N1S(=O)(=O)O`, the result in the experiment with Pseudomonas aeruginosa was Active.

On to `C[C@H](O)[C@H]1C(=O)N2C(C(=O)[O-])=C(Sc3nc(-c4cc[n+](CC(N)=O)cc4)cs3)[C@H](C)[C@H]12`, for which the result in the experiment with Staphylococcus aureus [5] was Active.
